Measurements from US12110299B2, “Thiazole derivatives and pharmaceutically acceptable salts thereof” (YUNGJIN PHARM. CO., LTD., priority 2018, dated 2024).

Tests used:
MDA-MB-468 cells = test: Anti-proliferative effect on MDA-MB-468 cells, IC50 (MTT); assay type: cell-based; conditions: Homo sapiens, MDA-MB-468, 72 h
Experimental: The compounds of the present invention were tested at different concentrations (from 1000 nM to 1 nM) to assess their ability for inhibiting the proliferation of MDAMB-468 cells. Cells were cultivated in RPMI 1640 (Welgene)+10% FBS (Gibco)+1% penicillin/streptomycin (Gibco) and cultured at 37° C. in a humidified chamber in the presence of 5% C02.
MDA-MB-468 cells cultured in 96-well cell culture plates were treated with the compounds of the present invention and incubated for 72 hours.

HepG2 cells = test: HepG2 cell viability assay (CCK-8); assay type: cell-based, human; conditions: Homo sapiens, HepG2, 72 h
Experimental: The ability to inhibit the proliferation of HepG2 cells, which are human hepatocellular carcinoma cells, was measured through the in vitro cell viability assay. Cells were cultured at 37° C. in a humidified condition in the presence of 5% CO2 using a culture medium of MEM (Welgene)+10% FBS (Gibco)+1% penicillin/streptomycin (Gibco). […] Cell viability was measured by CCK-8 method using tetrazolium salt, and the ability of the compounds according to the present invention to inhibit cancer cell proliferation was calculated.

SMILES | IC50 (MDA-MB-468 cells) | IC50 (HepG2 cells)
CC(C(=O)Nc1ncc(C(F)(F)F)s1)c1cncc(-c2cnc(NC(=O)/C=C/CN3CCOCC3)cn2)c1 (centres unmarked) [Example 74, (E)-4-morpholino-N-(5-(5-(1-oxo-1-((5-(trifluoromethyl)thiazol-2-yl)amino)propan-2-yl)pyridin-3-yl)pyrazin-2-yl)but-2-enamide] | 65 nM | –
C=CC(=O)Nc1ccc(-c2cncc(C(C)C(=O)Nc3ncc(C(F)(F)F)s3)c2)cn1 (centres unmarked) [Example 82, N-(5′-(1-oxo-1-((5-(trifluoromethyl)thiazol-2-yl)amino)propan-2-yl)-[3,3′-bipyridin]-6-yl)acrylamide] | 32 nM | 4 nM
CC(C(=O)Nc1ncc(C(F)(F)F)s1)c1cncc(-c2cnc(NC(=O)/C=C/CN3CC4CC3CO4)cn2)c1 (centres unmarked) [Example 83, (E)-4-(2-oxa-5-azabicyclo[2.2.1]heptan-5-yl)-N-(5-(5-(1-oxo-1-((5-(trifluoromethyl)thiazol-2-yl)amino)propan-2-yl)pyridin-3-yl)pyrazin-2-yl)but-2-enamide] | 21 nM | 3 nM
C=CC(=O)Nc1ncc(-c2cncc(C(C)C(=O)Nc3ncc(C(F)(F)F)s3)c2)cc1C#N (centres unmarked) [Example 88, N-(5-cyano-5′-(1-oxo-1-((5-(trifluoromethyl)thiazol-2-yl)amino)propan-2-yl)-[3,3′-bipyridin]-6-yl)acrylamide] | 54 nM | 9 nM
C[C@H](C(=O)Nc1ncc(C(F)(F)F)s1)c1cccc(-c2cnc(NC(=O)/C=C/CN3CCOCC3)cn2)c1 [Example 92, (S,E)-4-morpholino-N-(5-(3-(1-oxo-1-((5-(trifluoromethyl)thiazol-2-yl)amino)propan-2-yl)phenyl)pyrazin-2-yl)but-2-enamide] | 52 nM | 74 nM
C[C@H](C(=O)Nc1ncc(C(F)(F)F)s1)c1cccc(-c2cnc(NC(=O)/C=C/CN3CC4CC3CO4)cn2)c1 (stereo partly drawn) [Example 96, (E)-4-(2-oxa-5-azabicyclo[2.2.1]heptan-5-yl)-N-(5-(3-((S)-1-oxo-1-((5-(trifluoromethyl)thiazol-2-yl)amino)propan-2-yl)phenyl)pyrazin-2-yl)but-2-enamide] | 68 nM | 19 nM
COc1cc(-c2cccc([C@H](C)C(=O)Nc3ncc(C(F)(F)F)s3)c2)cnc1NC(=O)/C=C/CN(C)C [Example 100, (S,E)-4-(dimethylamino)-N-(3-methoxy-5-(3-(1-oxo-1-((5-(trifluoromethyl)thiazol-2-yl)amino)propan-2-yl)phenyl)pyridin-2-yl)but-2-enamide] | 56 nM | 8 nM
CC(C(=O)Nc1ncc(C(F)(F)F)s1)c1cncc(-c2cnc(NC(=O)/C=C/CN(C)C)c(C#N)c2)c1 (centres unmarked) [Example 108, (E)-N-(5-cyano-5′-(1-oxo-1-((5-(trifluoromethyl)thiazol-2-yl)amino)propan-2-yl)-[3,3′-bipyridin]-6-yl)-4-(dimethylamino)but-2-enamide] | 31 nM | 4.6 nM
COC[C@@H]1CCCN1C/C=C/C(=O)Nc1cnc(-c2cccc([C@H](C)C(=O)Nc3ncc(C(F)(F)F)s3)c2)cn1 [Example 118, (E)-4-((S)-2-(methoxymethyl)pyrrolidin-1-yl)-N-(5-(3-((S)-1-oxo-1-((5-(trifluoromethyl)thiazol-2-yl)amino)propan-2-yl)phenyl)pyrazin-2-yl)but-2-enamide] | 47 nM | –
C[C@H](C(=O)Nc1ncc(C(F)(F)F)s1)c1cccc(-c2cnc(NC(=O)/C=C/CN3CCCCC3)cn2)c1 [Example 120, (S,E)-N-(5-(3-(1-oxo-1-((5-(trifluoromethyl)thiazol-2-yl)amino)propan-2-yl)phenyl)pyrazin-2-yl)-4-(piperidin-1-yl)but-2-enamide] | 51 nM | –
C=CC(=O)Nc1ncc(-c2cccc([C@H](C)C(=O)Nc3ncc(C(F)(F)F)s3)c2)cc1C#N [Example 124, (S)-N-(3-cyano-5-(3-(1-oxo-1-((5-(trifluoromethyl)thiazol-2-yl)amino)propan-2-yl)phenyl)pyridin-2-yl)acrylamide] | 40 nM | –

Continued, values first:

IC50 (MDA-MB-468 cells) | IC50 (HepG2 cells) | SMILES
39 nM | 11 nM | C[C@H](C(=O)Nc1ncc(C(F)(F)F)s1)c1cccc(-c2cnc(NC(=O)/C=C/CN(C)C)cn2)c1 [Example 81, (S,E)-4-(dimethylamino)-N-(5-(3-(1-oxo-1-((5-(trifluoromethyl)thiazol-2-yl)amino)propan-2-yl)phenyl)pyrazin-2-yl)but-2-enamide]
38 nM | 21 nM | C[C@H](C(=O)Nc1ncc(Cl)s1)c1cccc(-c2cnc(NC(=O)/C=C/CN(C)C)cn2)c1 [Example 93, (S,E)-N-(5-(3-(1-((5-chlorothiazol-2-yl)amino)-1-oxopropan-2-yl)phenyl)pyrazin-2-yl)-4-(dimethylamino)but-2-enamide]
59 nM | 25 nM | C[C@H](C(=O)Nc1ncc(Cl)s1)c1cccc(-c2cnc(NC(=O)/C=C/CN3CC4CC3CO4)cn2)c1 (stereo partly drawn) [Example 94, (E)-4-(2-oxa-5-azabicyclo[2.2.1]heptan-5-yl)-N-(5-(3-((S)-1-((5-chlorothiazol-2-yl)amino)-1-oxopropan-2-yl)phenyl)pyrazin-2-yl)but-2-enamide]
23 nM | 5 nM | C[C@H](C(=O)Nc1ncc(C(F)(F)F)s1)c1cccc(-c2cnc(NC(=O)/C=C/CN(C)C)c(F)c2)c1 [Example 99, (S,E)-4-(dimethylamino)-N-(3-fluoro-5-(3-(1-oxo-1-((5-(trifluoromethyl)thiazol-2-yl)amino)propan-2-yl)phenyl)pyridin-2-yl)but-2-enamide]
57 nM | 13 nM | C[C@H](C(=O)Nc1ncc(C(F)(F)F)s1)c1cccc(-c2cnc(NC(=O)/C=C/CN3CCCC3)cn2)c1 [Example 102, (S,E)-N-(5-(3-(1-oxo-1-((5-(trifluoromethyl)thiazol-2-yl)amino)propan-2-yl)phenyl)pyrazin-2-yl)-4-(pyrrolidin-1-yl)but-2-enamide]
68 nM | 14 nM | C[C@H](C(=O)Nc1ncc(C(F)(F)F)s1)c1cccc(-c2cnc(NC(=O)/C=C/CN3CCC3)cn2)c1 [Example 103, (S,E)-4-(azetidin-1-yl)-N-(5-(3-(1-oxo-1-((5-(trifluoromethyl)thiazol-2-yl)amino)propan-2-yl)phenyl)pyrazin-2-yl)but-2-enamide]
44 nM | 8 nM | C[C@H](C(=O)Nc1ncc(C2CCC2)s1)c1cccc(-c2cnc(NC(=O)/C=C/CN(C)C)cn2)c1 [Example 104, (S,E)-N-(5-(3-(1-((5-cyclobutylthiazol-2-yl)amino)-1-oxopropan-2-yl)phenyl)pyrazin-2-yl)-4-(dimethylamino)but-2-enamide]
– | 3.1 nM | CC(C(=O)Nc1ncc(C(F)(F)F)s1)c1cncc(-c2ccc(NC(=O)/C=C/CN(C)C)nc2)c1 (centres unmarked) [Example 107, (E)-4-(dimethylamino)-N-(5′-(1-oxo-1-((5-(trifluoromethyl)thiazol-2-yl)amino)propan-2-yl)-[3,3′-bipyridin]-6-yl)but-2-enamide]
31 nM | 2.6 nM | COc1nc(-c2cccc([C@H](C)C(=O)Nc3ncc(C(F)(F)F)s3)c2)cnc1NC(=O)/C=C/CN(C)C [Example 109, (S,E)-4-(dimethylamino)-N-(3-methoxy-5-(3-(1-oxo-1-((5-(trifluoromethyl)thiazol-2-yl)amino)propan-2-yl)phenyl)pyrazin-2-yl)but-2-enamide]
